Results taken from patent US9232796B2, “Herbicidal compositions comprising 4-amino-3-chloro-5-fluoro-6-(4-chloro-2-fluoro-3-methoxyphenyl) pyridine-2-carboxylic acid or a derivative thereof and acetyl-CoA carboxylase (ACCase) inhibitors” (DOW AGROSCIENCES LLC, priority 2012, dated 2016).
Several values for one entry are separate records, joined by “and”; a condition that tells them apart may be missing. Equal values may be shown once.

How the values were obtained:
ECHCG = assay: Example V post-emergence field trials in direct-seeded rice; assay type: in vivo, Echinochloa crus-galli; details: foliar, field trial Greece
Description: Multiple field trials were conducted under commercial grower field conditions in Tolima, Colombia; Thessaloniki, Greece; Bianze and Copiano, Italy; and Humphrey, Ark., USA. Trials sites were located in commercially grown fields of direct-seeded rice (Oryza sativa) using standard herbicide small plot research methodology. Plots varied from 2 to 3 meter (m)×5 to 8 m (width×length) with 4 replicates per treatment. The rice crop was grown using normal cultural practices for fertilization, seeding, watering, flooding and maintenance to ensure good growth of the crop and the weeds.
All treatments in the field trials were applied using a backpack compressed air/gas sprayer with flat fan nozzles (80° or 110°) calibrated to apply 187 to 300 L/ha spray volume at approximately 200-400 kPa nozzle pressure. Commercially available products of cyhalofop-butyl (Clincher 180EC, Clincher 200EC, and Clincher SF (285 gr ai/L EC)) were mixed in water at appropriate formulated product rates to achieve the desired rates based on a unit area of application (hectare) to achieve the desired rates as shown. Treatments were rate at 19 to 58 days after application (DAA) as compared to the untreated control plants. Visual weed control was scored on a scale of 0 to 100 percent where 0 corresponds to no injury and 100 corresponds to complete kill. […]

CYPIR = assay: Example I postemergence foliar-applied, greenhouse, direct seeded rice weeds; assay type: in vivo, Cyperus iria L.
Outline: (§1)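 Greenhouse plants in loam/sandy loam–grit soil (80:20), grown 8-22 days (29/26 °C, 14 hr photoperiod) to first–fourth true leaf, sprayed postemergence at 187 L/ha with 1.25% (v/v) crop oil concentrate, alone or in mixtures. Visual injury scored 0–100% versus untreated plants after about 3 weeks; mixture expectations by Colby's equation.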

SCPJU = assay: as above; assay type: in vivo, Schoenoplectus juncoides (Roxb.) Palla
Outline: as §1

Structure (SMILES) | Visual Weed Control (%) - 55-58 DAA ECHCG Obs (ECHCG; 24 gae/ha) [%] | Visual Weed Control (%) - 20 DAA CYPIR Obs (CYPIR; 4.38 gae/ha) [%] | Visual Weed Control (%) - 22 DAA CYPIR Obs (CYPIR; 8 gae/ha) [%] | Visual Weed Control (%) - 20 DAA CYPIR Obs (CYPIR; 8.75 gae/ha) [%] | Visual Weed Control (%) - 22 DAA CYPIR Obs (CYPIR; 16 gae/ha) [%] | Visual Weed Control (%) - 22 DAA CYPIR Obs (CYPIR; 32 gae/ha) [%] | Visual Weed Control (%) - 20 DAA SCPJU Obs (SCPJU; 4.38 gae/ha) | Visual Weed Control (%) - 20 DAA SCPJU Obs (SCPJU; 8 gae/ha) [%] | Visual Weed Control (%) - 21 DAA SCPJU Obs (SCPJU; 8 gae/ha) [%] | Visual Weed Control (%) - 20 DAA SCPJU Obs (SCPJU; 8.75 gae/ha) [%] | Visual Weed Control (%) - 20 DAA SCPJU Obs (SCPJU; 16 gae/ha) [%] | Visual Weed Control (%) - 22 DAA CYPIR Obs (CYPIR; 4.38 gae/ha) [%] | Visual Weed Control (%) - 22 DAA SCPJU Obs (SCPJU; 4.38 gae/ha) [%] | Visual Weed Control (%) - 55-58 DAA ECHCG Obs (ECHCG; 300 gai/ha) [%]
COc1c(Cl)ccc(-c2nc(C(=O)OCc3ccccc3)c(Cl)c(N)c2F)c1F [Compound A Benzyl Ester, benzyl ester of 4-amino-3-chloro-5-fluoro-6-(4-chloro-2-fluoro-3-methoxy-phenyl)pyridine-2-carboxylic acid] | 6 | 15 | 20 | 35 | 85 | 100 | 30% | 70 | 85 | 60 | 85 |  |  | 
COc1c(Cl)ccc(-c2nc(C(=O)O)c(Cl)c(N)c2F)c1F [Compound A Acid, 4-amino-3-chloro-6-(4-chloro-2-fluoro-3-methoxyphenyl)-5-fluoropyridine-2-carboxylic acid] |  |  |  |  |  |  | 60% and 70% |  |  | 95 |  | 15 | 60 | 
CCCCOC(=O)[C@@H](C)Oc1ccc(Oc2ccc(C#N)cc2F)cc1 [Cyhalofop-butyl, butyl(2R)-2-[4-(4-cyano-2-fluorophenoxy)phenoxy]propanoate, reference compound] |  |  |  |  |  |  |  |  |  |  |  |  |  | 29
